In ChEMBL document CHEMBL1145306, “Synthesis of 2-C-hydroxymethylribofuranosylpurines as potent anti-hepatitis C virus (HCV) agents” (2006) one finds inhibition data, which are given here for one compound.

Test [1] concerns Hepatitis C virus. The experiment in a line: Antiviral activity against HCV in Huh7 cell line at 10 uM assessed as reduction in luciferase activity. The test is classed as functional, Hepacivirus hominis. Conditions: Huh-7.
Test [2] deals with Hepatitis C virus. Nature of the test: Antiviral activity against HCV in Huh7 cell line at 1 uM assessed as reduction in luciferase activity. The test is classed as functional, Hepacivirus hominis. As to conditions: Huh-7.

Take `Nc1ncnc2c1ncn2[C@@H]1O[C@H](CO)[C@@H](O)[C@]1(O)CO`: the inhibition at 10 µM in the test with Hepatitis C virus [1] was determined as 50%. In addition, the inhibition at 1 µM in the test on Hepatitis C virus [2] stood at 2%.

Usually inhibition stands for the share of the control response that was lost under treatment.
